Measured values taken from patent US7253207B2, “Quinones as disease therapies” (Cellgate, Inc., priority 1999, dated 2007).
Read-outs that look alike come from different tables or passages of the source. *1 amine or outer side, *2 acyl side, *3 side chain or, on linkers, in order; H or OH if unused. Where a SMILES comes first, the peptide text is derived from it. [ ]: non-standard residue; d: D form. The star is where a group is joined. X1 = CC1(C)OC2=C(CC1O*)C(=O)C(=O)c1ccccc12; Morpholide = C1CN(*)CCO1; CO = O=C([*:1])[*:2]; βAla = NCCC(=O)O

Tests used:
[1] = tested on: PC-3; assay: MTT assay, PC-3 prostate tumor cells; assay type: cell-based, human
Description: (§1) Cell Culture: The human lung adenocarcinoma cell line, A549, and human prostatic cancer cell line, DUPRO, were a gift from Dr. M. Eileen Dolan, University of Chicago, Department of Medicine. A549 was grown in Ham's F-12K medium (Fisher Scientific, Itasca, Ill.) supplemented with 10% fetal bovine serum and 2 mM L-glutamine. DUPRO was grown in RPMI-1640 supplemented with 10% fetal bovine serum. The human colon carcinoma cell line, HT29, and the human breast carcinoma cell line, MCF7, were obtained from the American Type Culture Collection, Rockville, Md. HT29 cells were grown in McCoy's 5A medium (Gibco, BRL, Gaithersburg, Md.) supplemented with 10% fetal bovine serum. MCF7 cells were grown in Richter's Improved Modified Eagle's medium supplemented with 10% fetal bovine serum and 2.2 g/L sodium bicarbonate. The human prostate adenocarcinoma cell lines, LNCAP, PC-3 and DU145, were gifts from Dr. George Wilding, University of Wisconsin Comprehensive Cancer Center and the Department of Medicine, and were grown in Dulbecco's Modified Eagle's medium supplemented with a 5% fetal bovine serum. The malignant glioma cell line, U251MG NCI was obtained from the brain tumor tissue bank at the University of California, San Francisco Department of Neurosurgery, and was grown in Dulbecco's Modified Eagle's medium supplemented with 10% fetal bovine serum. DUPRO, A549 and MCF7 cells were grown in 100 units/mL penicillin and 100 μg/mL streptomycin. HT29 and U251MG NCI cells were grown in 50 g/μL gentamycin. LNCAP, PC-3 and DU145 cells were maintained in 1% antibiotic antimycotic solution (Sigma, St. Louis, Mo.). All cell cultures were maintained at 37° C. in 5% CO2/95% humidified air.
(§2) MTT assay. Exponentially growing monolayer cells were plated in 96 well plates at a density of 500 cells/well and allowed to grow for 24 h. Serially diluted drug solutions were added such that the final drug concentrations in the treatment media were between 0 and 35 μM. Cells were incubated with drug at either 4 hr or 72 hr. After 4 hr and 72 hr treatment, drugs were removed, fresh media (without) drug (100 uL) was added and cells were incubated for 6 days. After six days, 25 μL of a Dulbecco's phosphate-buffered saline solution containing 5 mg/mL of MTT (Thiazolyl blue) (Sigma) was added to each well and incubated for 4 h at 37° C. Then 100 μL of lysis buffer (20% sodium dodecyl sulfate, 50% N,N-dimethylformamide and 0.8% acetic acid, pH 4.7) was added to each well and incubated for an additional 22 h. A microplate reader (E max, Molecular Devices, Sunnyvale, Calif.) set at 570 nm was used to determine the optical density. Results were plotted as a ratio of the optical density in drug treated wells to the optical density in wells treated with vehicle alone. Plotting and estimation of ID50 values were accomplished with manufacturer supplied software.

[2] = tested on: DUPRO; assay: MTT assay, DUPRO prostate tumor cells; assay type: cell-based, human; conditions: Table 1, treatment time not stated
Description: as §1
MTT assay. Exponentially growing monolayer cells were plated in 96 well plates at a density of 500 cells/well and allowed to grow for 24 h. Serially diluted drug solutions were added such that the final drug concentrations in the treatment media were between 0 and 35 μM. […] A microplate reader (E max, Molecular Devices, Sunnyvale, Calif.) set at 570 nm was used to determine the optical density. […]

[3] = tested on: DU145; assay: MTT assay, DU145 prostate tumor cells; assay type: cell-based, human; conditions: Table 1; for ID50 (μM) of different prostate cells DU145: MTT assay, treatment time not stated
Description: as §1, §2

[4] = tested on: A549; assay: MTT assay, A549 lung tumor cells; assay type: cell-based; conditions: Homo sapiens, read-out: ID50 (μM) of different Tumor cells Lung A549
Description: as §1, §2

[5] = tested on: HT-29; assay: MTT assay, HT-29 colon tumor cells; assay type: cell-based; conditions: Homo sapiens, Table 2, treatment time not stated, read-out: ID50 (μM) of different Tumor cells Colon HT-29
Description: as §1, §2

[6] = tested on: MCF7; assay: MTT assay, MCF7 breast tumor cells; assay type: cell-based, human; conditions: Table 2, treatment time not stated
Description: as §1, §2

[7] = tested on: U251-MG; assay: MTT assay, U251-MG brain tumor cells; assay type: cell-based, human
Description: as §1, with “The malignant glioma cell line, U251MG NCI was obtained from the brain tumor tissue bank at the University of California, San Francisco Department of Neurosurgery, and was grown in Dulbecco's Modified Eagle's medium supplemented with 10% fetal bovine serum. DUPRO, A549 and MCF7 cells were grown in 100 units/mL penicillin and 100 μg/mL streptomycin. HT29 and U251MG NCI cells were grown in 50 g/μL gentamycin. LNCAP, PC-3 and DU145 cells were maintained in 1% antibiotic antimycotic solution (Sigma, St. Louis, Mo.). All cell cultures were maintained at 37° C. in 5% CO2/95% humidified air.” left out
MTT assay. […] A microplate reader (E max, Molecular Devices, Sunnyvale, Calif.) set at 570 nm was used to determine the optical density. […]

[8] = Homo sapiens, PC-3, Table 1, MTT assay, treatment time not stated, read-out: ID50 (μM) of different prostate cells PC-3
[9] = Table 2, treatment time not stated

| Structure (SMILES) | IC50 [1, 8] | IC50 [4, 9] | IC50 [5] | ID50 (μM) of different Tumor cells Breast MCF7 [6] | further results |
| --- | --- | --- | --- | --- | --- |
| O=C1C=C(CCCCCCCCc2ccc(Nc3c4ccccc4nc4ccccc34)cc2)c2ccccc2C1=O [SL-11125, Quinone-acridine] | 5.9 µM | 28 µM | 5.7 µM | 5.1 µM | ID50 (μM) of different prostate cells DUPRO [2]: 7.9 µM; ID50 (μM) of different prostate cells DU145 [3]: 0.13 µM |
| CC(C)CC(NC(=O)C(CCCCN)NC(=O)C(CO)NC(=O)N1CCOCC1)C(=O)NC(CCC(N)=O)C(=O)NCCC(=O)OC1CC2=C(OC1(C)C)c1ccccc1C(=O)C2=O (stereo not drawn) [SL-11147, Morpholino-Ser-Lys-Leu-Gln-β-Ala-β-Lapachone] ({Morpholide-CO}-SKLQ[βAla]-X1; configuration not given here) |  |  |  |  | IC50 ([1]; Table 1, 4 hr, read-out: ID50 (μM) PC-3 (4 hr)): 6.3 µM; IC50 ([1]; Table 1, 72 hr, read-out: ID50 (μM) PC-3 (72 hr)): 1.24 µM; IC50 ([3]; 4 hr, read-out: ID50 (μM) DU145 (4 hr)): 28.1 µM; IC50 ([3]; 72 hr, read-out: ID50 (μM) DU145 (72 hr)): 2.01 µM |
| O=C1C=C(OCCCCCCO)c2ccccc2C1=O [SL-11051] | 17.1 µM | 17.2 µM | 20 µM |  | ID50 (μM) of different prostate cells DUPRO [2]: 19.3 µM; ID50 (μM) of different prostate cells DU145 [3]: 11.16 µM |
| CCCCN(CC1=CC(=O)C(=O)c2ccccc21)C(C)=O [SL-11087] | 2.4 µM | 19.8 µM | 6.05 µM | 4.0 µM |  |
| CCCCN(CC1=CC(=O)C(=O)c2ccccc21)C(=O)C(F)(F)F [SL-11088] | > 31.2 µM | > 31.2 µM | > 31.2 µM | >31.25 µM |  |
| CCCCN(CC1=C(Br)C(=O)C(=O)c2ccccc21)C(C)=O [SL-11095] | 4.2 µM | > 31.2 µM | 22.1 µM | 20.6 µM |  |
| CCCCN(CC1=CC(=O)C(=O)c2ccccc21)C(=O)CCC(=O)N1CCOCC1 [SL-11096] | 3.6 µM | 17.4 µM | 3.4 µM | 3.8 µM |  |
| CCCCN/C=C1\C=C(O)C(=O)c2ccccc21 [SL-11089] | 11 µM |  |  | >31.25 µM |  |
| CN(C)c1cccc(OC(=O)CCCCOC2=CC(=O)C(=O)c3ccccc32)c1 [SL-11074] | 4.6 µM |  |  |  |  |
| O=C1C=C(OCCCCCCOC2=CC(=O)c3ccccc3C2=O)c2ccccc2C1=O [SL-11065] | 1.4 µM | 2.13 µM |  |  |  |
| NCCCCCC(=O)OCCCCCCOC1=CC(=O)C(=O)c2ccccc21 [SL-11075] | 2 µM |  |  |  |  |
| CN1CCN(c2ccc3nc(-c4ccc5nc(-c6ccc(O)cc6)[nH]c5c4)[nH]c3c2)CC1 [SL-11063] |  |  |  |  | IC50 ([1]; Homo sapiens, PC-3, Table 3, non-quinone structure, MTT assay, read-out: ID50 (μM) of different prostate cells PC-3): > 31.2 µM; IC50 ([4]; Table 4, non-quinone compounds): > 31.2 µM |
| COC(=O)c1cc(NC(=O)CCCCOC2=CC(=O)C(=O)c3ccccc32)cn1C [SL-11052] |  | 26.9 µM |  |  |  |
| O=C1C=C(OCCCCCCOc2ccccc2)c2ccccc2C1=O [SL-11068] | 1.5 µM | 24 µM |  |  |  |
| O=C(OCCCCCCOC1=CC(=O)C(=O)c2ccccc21)OCCCCCCOC1=CC(=O)C(=O)c2ccccc21 [SL-11053] |  | 7.39 µM | 2.8 µM |  |  |
| Cl.O=C1C=C(OCCCCCNC2CCCCC2)c2ccccc2C1=O [SL-11060] |  | > 31.2 µM | > 31.2 µM | 17.23 µM | ID50 (μM) of different Tumor cells Brain U251-MG [7, 9]: >31.25 µM |
| N#Cc1ccc(OCCCCCCOC2=CC(=O)C(=O)c3ccccc32)cc1 [SL-11062] | 1.71 µM | 18.6 µM |  |  |  |
| CC(C)(C)C(=O)OC1=CC(=O)C(=O)c2ccccc21 [SL-11054] |  | > 31.2 µM | > 31.2 µM |  |  |
| O=C1C=C(OCCCCCCOc2ccc(OC3OC(CO)C(O)C(O)C3O)cc2)c2ccccc2C1=O (centres unmarked) [SL-11066] | > 31.2 µM | > 31.2 µM |  |  |  |
| O=C1C=C(OCCCCCNc2c3ccccc3nc3ccccc23)c2ccccc2C1=O [SL-11059, Acridine-quinone] | 4.3 µM | 15 µM | 10.1 µM |  |  |
| CC1(C)CCC2=C(O1)c1ccccc1C(=O)C2=O [SL-11058] |  |  |  |  | ID50 (μM) of different Tumor cells Brain U251-MG ([7]; Table 4, non-quinone compounds): >31.25 µM |
| O=C1C=C(OCCCCCCCc2ccc(Nc3c4ccccc4nc4ccccc34)cc2)c2ccccc2C1=O [SL-11064, Quinone-anilinoacridine] | 0.7 µM | 9.3 µM |  |  | ID50 (μM) of different prostate cells DUPRO [2]: 2.2 µM; ID50 (μM) of different prostate cells DU145 [3]: 0.13 µM |
